# Like-named read-outs stand apart in the source and are kept apart here.
# How the values were obtained:
# [1] = tested on: spheroid PHHs; experiment: Spheroid-based DILI assay; format: cell-based, human
# Procedure: Culture of PHHs and HepatoMOS generation: The pooled donors and the individual donor of PHHs were purchased from BioIVT (www.bioivt.com). The PHHs used to compare the DILI predictivities of the spheroid method vs. HepatoMOS methods were accompanied with the InSphero Kit. Four different serum-free media options (InSphero, HCM™ Hepatocyte Culture Medium BulletKit™, BioIVT INVITROGRO HI Medium, and William E) were selected for the initial HepatoMOS culture in this study. PHHs were cultured either as a 2D monolayer on collagen-coated 96-well plates or encapsulated in MOS to create HepatoMOS at different cell densities. For the comparison of HepatoMOS with the dome culture methods, matched cell densities used for the dome and making HepatoMOS were used.
# Given the high fidelity of cell viability, maintenance, and hepatic-specific function preservation in HepatoMOS culture, the potential application in predicting DILI effects during drug development was evaluated. The sensitivities and specificities of HepatoMOS were compared with two widely used approaches for DILI detection: i) 2D culture; and ii) spheroid PHHs.
# [2] = tested on: HepatoMOS (PHHs); experiment: HepatoMOS-based DILI assay (CTG viability, live/dead staining); format: cell-based, human; details: for IC50: Homo sapiens; for sensitivity of HepatoMOS-based versus spheroid-based DILI assay: indicated by lower IC50 values and large safety margins
# Procedure: Frozen human hepatocytes from Lonza were plated at 30,000 cells per well and allowed to establish in plating media. On day 2 plating media was removed and replaced with maintenance media and cultured for 1 day. On the third day, media was replaced with treatment media and the cells were treated for 72 hours. Prior to harvest HepatoMOSs were treated with CTG reagent to monitor viability.
# 100 cells/droplet was used in this experiment, the cell viabilities were determined by Celltiter Glo 3D.
# (§1) Cell viability assay: The cell viabilities of PHHs in 2D monolayer culture or HepatoMOS culture were measured by CellTiter-Glo® 3D Cell Viability Assay (Promega). For the HepatoMOS viability measurement, we also applied the combination of Calcein AM and EtH staining in addition to CTG assay as previously reported.
# (§2) DILI assessment in 2D PHHs and HepatoMOS: For the DILI assessment in the 2D monolayer of PHH cultures, PHHs were seeded at the cell density of 20,000 live cells/well in the collagen-coated 96-well plates. After 24h of culturing, the PHHs were exposed to DILI compounds at different concentrations. The cell viabilities of PHHs were then measured by using CTG assay and the DILI effects were assessed by the changes of CTG reading. For the DILI assessment in HepatoMOS culture, the HepatoMOS were encapsulated at 100 cells/droplet and cultured at HCM or InSphero media for 4 days. Then the HepatoMOS were dispensed into 96 well plates and followed by the drug treatment.
# [3] = tested on: 2D monolayer of PHH cultures; experiment: 2D-based DILI assay; format: cell-based, human
# Procedure: as §1, §2
# [4] = combined with immunotherapies; cited from earlier work
# [5] = tested on: HepG2; details: values above 199 show no toxicity; read-out: Typical 2D HepG2 Monolayer Cell Health IC50; cited from earlier work
# [6] = tested on: 3D Hepatocyte Spheroid; details: values above 199 show no toxicity; read-out: 3D Hepatocyte Spheroid pIC50 (converted); cited from earlier work
# [7] = tested on: tumor; experiment: Actual patient tumor response to treatment; details: in vivo
# Procedure: (§3) In a similar set of experiments, MOSs were generated from biopsy material (FIG. 23A), and a drug effect screen was performed using the resulting MOSs. […] Thus, the MOSs correlated strongly with patient response to the standard of care drugs. In this case, the patient endured six months of side effects and toxicities that may have been avoided by the predicted response from the MOSs, indicating (within 7-10 days from the biopsy) that the tumor would not respond to these drugs.
# [8] = tested on: tumor MOSs; experiment: Drug screen on MOSs generated from a patient tumor biopsy; format: cell-based
# Procedure: as §3
# In this example, a drug screen using the Patient-Derived MOSs was run by dosing a plurality of replicates for each of a plurality of (27) drugs. A single tumor biopsy was used to generate a plurality of MOSs in large quantities extremely fast (e.g., within less than two weeks) and these MOSs were tested against the panel of drug formulations (e.g., 27 formulations are shown). This testing was done in parallel and could be automatically quantified (e.g., by optical detection and quantification).
# [9] = tested on: traditional cell line; experiment: Traditional cell line drug screen; format: cell-based; details: all dose ranges examined
# Excerpt: As mentioned above, the MOSs and methods of using them to screen for drug compositions may be used to accurately predict the response of a patient tumor to one or more drug therapies. […] For example, in FIG. 22A-22D, the MOSs, but not a cell line, was able to correlate with patient response.
# [10] = tested on: human liver MOSs; experiment: Toxicity assay using human liver MOSs; format: cell-based; details: 10 mM
# Excerpt: Similarly, FIGS. 34A-34B also show toxicity assays using human liver MOSs.
# [11] = tested on: mouse liver MOSs; experiment: Toxicity assay using mouse liver MOSs; format: cell-based; details: 10 mM
structure (smiles),measurement,setting,value
C=CC(=O)N1CCN(c2nc(=O)n(-c3c(C)ccnc3C(C)C)c3nc(-c4c(O)cccc4F)c(F)cc23)[C@@H](C)C1 [AMG-510],DILI concern in spheroid-based DILI assay,[1],failed to capture any DILI concern
same,IC50,[2]; 10 donor batch,< 10 µM
same,IC50,[2]; single donor,< 3.7 µM
same,DILI concern in 2D-based DILI assay,[3],failed to capture any DILI concern
same,liver side effects in Phase 1 clinical trial,[4],higher incidence of severe liver side effects
COc1ccccc1Oc1c(NS(=O)(=O)c2ccc(C(C)(C)C)cc2)nc(-c2ncccn2)nc1OCCO [Bosentan],IC50,[5],> 200 µM
same,IC50,[6],166 µM
O=C(O)Cc1ccccc1Nc1c(Cl)cccc1Cl [Diclofenac],IC50,[5],> 200 µM
same,IC50,[6],66.1 µM
O=c1[nH]c(=O)n([C@@H]2O[C@H](CO)[C@@H](O)[C@@H]2F)cc1I [Fialuridine],IC50,[5],> 200 µM
same,IC50,[6],1.32 µM
CCc1c2c(nc3ccc(OC(=O)N4CCC(N5CCCCC5)CC4)cc13)-c1cc3c(c(=O)n1C2)COC(=O)[C@]3(O)CC [Irinotecan],patient tumor response to treatment,[7],no response
same,cell survival of tumor MOSs,[8],lack of effect
CS(=O)(=O)CCNCc1ccc(-c2ccc3ncnc(Nc4ccc(OCc5cccc(F)c5)c(Cl)c4)c3c2)o1 [Lapatinib],IC50,[5],> 200 µM
same,IC50,[6],1.32 µM
O=C1[O][Pt]2([NH][C@@H]3CCCC[C@H]3[NH]2)[O]C1=O [Oxaliplatin],effect on traditional cell line,[9],no effect
same,patient tumor response to treatment,[7]; listed as Oxalipalatin,no response
same,patient tumor response to treatment,[7]; listed as Oxalipalitin,responded to treatment
same,cell survival of tumor MOSs,[8]; listed as Oxalipalatin,no change in the percent survival
same,cell survival of tumor MOSs,[8]; listed as Oxalipalitin,significant decreases in cell survival
Cc1ccc(C(=O)c2cc(O)c(O)c([N+](=O)[O-])c2)cc1 [Tolcapone],IC50,[5],91.2 µM
same,IC50,[6],9.99 µM
same,sensitivity of HepatoMOS-based versus spheroid-based DILI assay,[2],better sensitivities
Cc1c(C)c2c(c(C)c1O)CCC(C)(COc1ccc(CC3SC(=O)NC3=O)cc1)O2 (centres unmarked) [Troglitazone],sensitivity of HepatoMOS-based versus spheroid-based DILI assay,[2],better sensitivities
CC(=O)Nc1ccc(O)cc1 [acetaminophen],tissue in human liver MOSs versus control,[10],significant increase atypical tissue structures (arrows) and debris
same,tissue in mouse liver MOSs versus control,[11],smaller and contains many dead cells

# Reference: US20250320462A1, “METHODS AND APPARATUSES FOR TESTING HEPATOCYTE TOXICITY USING MICROORGANOSPHERES” (XILIS, INC., priority 2022, published 2025)
